This passage reports mortality results from US20110212834A1, “Pesticidal Compound Mixtures” (BAYER CROPSCIENCE AG, priority 2009, published 2011).

The structures appear in SMILES notation.

Holding throughout (assay type): in vivo
Common to all, as to settings: 144 h, single compound, after 6 d

For one experiment, the system named is Myzus persicae. In words: Myzus persicae test, spray treatment of infested cabbage leaves. As for the experimental part:
(§1) To produce a suitable preparation of active compound, 1 part by weight of active compound is mixed with the stated amount of solvent and emulsifier, and the concentrate is diluted with emulsifier-containing water to the desired concentration.
Cabbage leaves (Brassica oleracea) which are heavily infested by the green peach aphid (Myzus persicae) are treated by being sprayed with the preparation of the active compound at the desired concentration.
After the specified period of time, the mortality in % is determined. 100% means that all the aphids have been killed; 0% means that none of the aphids have been killed.

In the next experiment the test system is Phaedon cochleariae. In words: Phaedon cochleariae larvae test, sprayed cabbage leaves. As for the experimental part:
as §1
Cabbage leaves (Brassica oleracea) are treated by being sprayed with the preparation of the active compound at the desired concentration and are infested with larvae of the mustard beetle (Phaedon cochleariae) as long as the leaves are still moist.
After the specified period of time, the mortality in % is determined. 100% means that all the beetle larvae have been killed; 0% means that none of the beetle larvae have been killed. According to the present application in this test e.g. the following combinations show a synergistic effect in comparison to the single compounds: […]

Another experiment relates to Tetranychus urticae. Briefly: Tetranychus test (OP-resistant), sprayed bean plants. As for the experimental part:
as §1
Bean plants (Phaseolus vulgaris) which are heavily infested with all stages of the two-spotted spider mite (Tetranychus urticae) are treated by being sprayed with the preparation of the active compound at the desired concentration.
After the specified period of time, mortality in % is determined. 100% means that all the spider mites have been killed; 0% means that none of the spider mites have been killed.

For the next experiment, the system named is Spodoptera frugiperda. In words: Spodoptera frugiperda test, sprayed cabbage leaves. As for the experimental part:
as §1
Cabbage leaves (Brassica oleracea) are treated by being sprayed with the preparation of the active compound at the desired concentration and are infested with larvae of the fall army worm (Spodoptera frugiperda) as long as the leaves are still moist.
After the specified period of time, the mortality in % is determined. 100% means that all the caterpillars have been killed; 0% means that none of the caterpillars have been killed. According to the present application in this test e.g. the following combinations show a synergistic effect in comparison to the single compounds: […]

Regarding `CC(C1CC1)C(O)(Cn1cncn1)c1ccc(Cl)cc1` (stereo not drawn) [Cyproconazole, cyproconazole], the mortality at 500 g/ha with Myzus persicae, in the experiment with Phaedon cochleariae and with Tetranychus urticae (500 g/ha) was 0% throughout.

For the compound `OC(Cc1ccccc1Cl)(Cn1nc[nH]c1=S)C1(Cl)CC1` (stereo not drawn) [Prothioconazole], in the experiment with Myzus persicae, the mortality at 500 g/ha amounted to 0%.

On to `CC1(C)[C@H](C=C(Cl)Cl)[C@H]1C(=O)OCc1c(F)c(F)cc(F)c1F` [Transfluthrin], for which the mortality at 4 g/ha in the experiment with Spodoptera frugiperda (4 g/ha) came to 50%. The mortality at 20 g/ha in the experiment on Myzus persicae (20 g/ha) and with Phaedon cochleariae (20 g/ha) was 0% throughout. Further, the mortality at 100 g/ha was 80% with Myzus persicae (100 g/ha) and 0% with Tetranychus urticae (100 g/ha).

On to `CC(C)(C)C(O)(CCc1ccc(Cl)cc1)Cn1cncn1` (stereo not drawn) [Tebuconazole, tebuconazole], for which the mortality at 500 g/ha in the experiment with Spodoptera frugiperda, with Myzus persicae and in the experiment on Phaedon cochleariae was 0% each time.

For `CC(C)C1CCC(Cc2ccc(Cl)cc2)C1(O)Cn1cncn1` (stereo not drawn) [Ipconazole, ipconazole], the mortality at 500 g/ha in the experiment on Spodoptera frugiperda, in the experiment on Myzus persicae and in the experiment with Phaedon cochleariae was 0% each time.
